Measured values: article PMC8523698, “Preclinical characterization of an intravenous coronavirus 3CL protease inhibitor for the potential treatment of COVID19” (Nature Communications, 2021)
“And” between values parts separate entries of the source, which are not always exact repeats. Equal entries are not always repeated. Where two headings read alike, the source gives them in different places.

How the values were obtained:
[1] = In vitro micronucleus formation; assay type: cell-based
[2] = molecular target: T1, OAT3 (Homo sapiens, UniProt Q8TCC7); test: Transporter inhibition using transfected HEK293 cells
T1 sequence (Q8TCC7 1-542): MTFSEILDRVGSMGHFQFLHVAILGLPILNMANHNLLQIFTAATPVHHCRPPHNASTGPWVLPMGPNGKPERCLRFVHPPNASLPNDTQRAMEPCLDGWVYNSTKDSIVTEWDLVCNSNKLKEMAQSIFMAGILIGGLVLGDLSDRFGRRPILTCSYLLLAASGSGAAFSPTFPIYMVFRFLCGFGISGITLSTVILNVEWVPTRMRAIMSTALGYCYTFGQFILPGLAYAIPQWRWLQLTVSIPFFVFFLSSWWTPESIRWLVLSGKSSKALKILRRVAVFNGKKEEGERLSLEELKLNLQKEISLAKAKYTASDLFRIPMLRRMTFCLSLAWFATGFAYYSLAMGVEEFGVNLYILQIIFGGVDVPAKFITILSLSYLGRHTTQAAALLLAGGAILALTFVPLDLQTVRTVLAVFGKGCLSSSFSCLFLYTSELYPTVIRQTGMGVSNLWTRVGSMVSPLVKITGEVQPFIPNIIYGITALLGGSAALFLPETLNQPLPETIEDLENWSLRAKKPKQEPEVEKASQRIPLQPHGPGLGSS

[3] = molecular target: T2, OAT1 (Homo sapiens, UniProt Q4U2R8); test: as above
T2 sequence (Q4U2R8 1-563): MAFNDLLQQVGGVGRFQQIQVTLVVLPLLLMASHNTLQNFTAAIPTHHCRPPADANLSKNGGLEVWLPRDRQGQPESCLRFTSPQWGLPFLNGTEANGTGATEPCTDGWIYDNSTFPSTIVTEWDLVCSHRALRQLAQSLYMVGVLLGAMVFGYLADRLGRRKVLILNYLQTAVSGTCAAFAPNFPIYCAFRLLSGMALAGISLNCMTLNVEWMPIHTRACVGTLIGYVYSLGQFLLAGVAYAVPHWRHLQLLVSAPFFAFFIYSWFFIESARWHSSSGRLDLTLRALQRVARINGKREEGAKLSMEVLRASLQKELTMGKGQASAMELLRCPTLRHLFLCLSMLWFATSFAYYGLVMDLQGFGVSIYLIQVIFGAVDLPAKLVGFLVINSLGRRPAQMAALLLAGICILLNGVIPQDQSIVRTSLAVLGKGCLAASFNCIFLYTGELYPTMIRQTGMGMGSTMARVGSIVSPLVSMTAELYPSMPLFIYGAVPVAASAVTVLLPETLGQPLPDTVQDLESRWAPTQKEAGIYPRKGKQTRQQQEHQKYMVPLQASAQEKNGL

[4] = test system: HCoV-229E; test: Viral CPE assay in MRC-5 cells (CellTiter Glo); assay type: cell-based; conditions: Human coronavirus 229E
[5] = Plasma protein binding by equilibrium dialysis; conditions: for fraction unbound at 6 h, 5 uM / fraction unbound at 6 h: dog, plasma
[6] = Plasma protein binding by equilibrium dialysis; conditions: for fraction unbound at 6 h, 5 uM / fraction unbound at 6 h: human, plasma
[7] = molecular target: CYP2C19 (Homo sapiens, UniProt P33261); test: Reversible CYP inhibition in human liver microsomes
Chain of CYP2C19 (P33261 whole entry): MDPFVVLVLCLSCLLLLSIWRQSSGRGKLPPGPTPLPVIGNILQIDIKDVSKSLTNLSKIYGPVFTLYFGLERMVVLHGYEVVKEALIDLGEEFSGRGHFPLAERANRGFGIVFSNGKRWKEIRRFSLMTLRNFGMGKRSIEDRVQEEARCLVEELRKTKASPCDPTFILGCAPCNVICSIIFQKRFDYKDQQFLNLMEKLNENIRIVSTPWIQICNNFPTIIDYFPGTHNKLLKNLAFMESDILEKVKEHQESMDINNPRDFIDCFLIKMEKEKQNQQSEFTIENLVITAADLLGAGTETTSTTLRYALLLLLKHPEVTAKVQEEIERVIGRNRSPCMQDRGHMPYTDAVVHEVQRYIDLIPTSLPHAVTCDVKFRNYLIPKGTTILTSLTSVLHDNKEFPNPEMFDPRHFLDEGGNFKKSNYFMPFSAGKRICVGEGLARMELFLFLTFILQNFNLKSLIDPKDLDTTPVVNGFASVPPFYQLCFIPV

COc1cccc2[nH]c(C(=O)N[C@@H](CC(C)C)C(=O)N[C@@H](C[C@@H]3CCNC3=O)C(=O)CO)cc12 [PF-00835231]
micronuclei formation [1]: did not induce micronuclei formation | IC50 [2]: > 300000 nM | IC50 ([2]; human, HEK293 cells transfected with OAT3, pH 7.4, probe [3H] estrone-3-sulfate (0.1 µM)): > 20000 nM | IC50 [3]: > 300000 nM | IC50 ([3]; human, HEK293 cells transfected with OAT1, pH 7.4, probe [3H] para-aminohippuric acid (0.5 µM)): > 20000 nM | EC50 ([4]; MRC5, MRC-5, minus efflux inhibitor, individual determinations by date): 80.6 nM | EC50 ([4]; MRC5, read-out: EC50 GeoMean (95% CI), efflux inhibitor CP-100356: 0): 69 nM | EC50 ([4]; MRC5, read-out: EC50 GeoMean (95% CI), efflux inhibitor CP-100356: 0.5 μM): 80 nM | fraction unbound at 6 h, 5 uM ([5]; Beagle, pH 7.4, Fraction unbound, Geomean, Dog plasma, 5.0 uM, n 12): 0.416 | fraction unbound at 6 h, 5 uM ([5]; Beagle, pH 7.4, Individual fraction unbound, Dog Beagle plasma, 5.0 uM, replicates Day 1-3): 0.401 | Individual fraction unbound ([5]; Dog Beagle plasma, 5.0 uM, replicates Day 1-3): 0.386 and 0.435 and 0.45 and 0.406 and 0.488 and 0.451 and 0.403 and 0.342 and 0.444 and 0.382 and 0.419 | fraction unbound at 6 h ([5]; pH 7.4, Plasma fu, Vdss input): 0.416 | fraction unbound at 6 h ([5]; pH 7.4, Unbound fraction fu (%CV), dog plasma): 0.416 | fraction unbound at 6 h, 5 uM ([5]; pH 7.4, fraction unbound Geomean, dog plasma, 5.0 uM, n=12): 0.416 | Individual fraction unbound ([6]; human plasma, 5.0 uM, replicates Day 1-3): 0.474 and 0.429 and 0.385 and 0.458 and 0.463 and 0.507 and 0.437 and 0.428 and 0.477 and 0.486 | fraction unbound at 6 h, 5 uM ([6]; pH 7.4, Fraction unbound, Geomean, human plasma, 5.0 uM, n 12): 0.449 | fraction unbound at 6 h, 5 uM ([6]; pH 7.4, Individual fraction unbound, human plasma, 5.0 uM, replicates Day 1-3): 0.423 | fraction unbound at 6 h ([6]; pH 7.4, Measured plasma fu / Human plasma fu, human plasma): 0.449 | fraction unbound at 6 h ([6]; pH 7.4, Unbound fraction fu (%CV), human plasma): 0.449 | fraction unbound at 6 h, 5 uM ([6]; pH 7.4, fraction unbound Geomean, human plasma, 5.0 uM, n=12): 0.449 | fraction unbound at 6 h ([6]; pH 7.4, fu, fu,plasma, Simcyp input parameter (User), substrate): 0.449 | Percent of Control Activity ([7]; CYP 2C19, 0.1 µM, Zero-Minute Preincubation, 0.1 µM): 97.1% and 93.1% | Percent of Control Activity ([7]; CYP 2C19, 0.214 µM, 30-Minute Preincubation, 0.214 µM): 94.5% and 97.7% | Percent of Control Activity ([7]; CYP 2C19, 0.214 µM, Zero-Minute Preincubation, 0.214 µM): 96.9% and 95.6% | Percent of Control Activity ([7]; CYP 2C19, 0.979 µM, Zero-Minute Preincubation, 0.979 µM): 91.0% and 93.6% | Percent of Control Activity ([7]; CYP 2C19, 2.09 µM, 30-Minute Preincubation, 2.09 µM): 78.6% and 76.3% | Percent of Control Activity ([7]; CYP 2C19, 2.09 µM, Zero-Minute Preincubation, 2.09 µM): 89.4% and 88.4% | Percent of Control Activity ([7]; CYP 2C19, 4.48 µM, 30-Minute Preincubation, 4.48 µM): 87.7% and 90.1% | Percent of Control Activity ([7]; CYP 2C19, 4.48 µM, Zero-Minute Preincubation, 4.48 µM): 88.9% and 87.5% | Percent of Control Activity ([7]; CYP 2C19, 20.5 µM, 30-Minute Preincubation, 20.5 µM): 82.9% and 81.5% | Percent of Control Activity ([7]; CYP 2C19, 20.5 µM, Zero-Minute Preincubation, 20.5 µM): 89.8% and 81.5% | Percent of Control Activity ([7]; CYP 2C19, 43.8 µM, 30-Minute Preincubation, 43.8 µM): 68.7% | Percent of Control Activity ([7]; CYP 2C19, 43.8 µM, Zero-Minute Preincubation, 43.8 µM): 83.4% and 80.9% | Percent of Control Activity ([7]; CYP 2C19, 93.5 µM, 30-Minute Preincubation, 93.5 µM): 66.6% and 74.6% | Percent of Control Activity ([7]; CYP 2C19, 93.5 µM, Zero-Minute Preincubation, 93.5 µM): 77.3% | Percent of Control Activity ([7]; CYP 2C19, 200 µM, 30-Minute Preincubation, 200 µM): 62.1% and 65.9% | Percent of Control Activity ([7]; CYP 2C19, 200 µM, Zero-Minute Preincubation, 200 µM): 65.6% and 68.4% | IC50 ([7]; human, microsomes, pH 7.4): > 200000 nM | activity at 0.1 µM ([7]; human, microsomes, pH 7.4, Percent of Control Activity, CYP 2C19, 0.1 µM, Zero-Minute Preincubation): 95.2% | activity at 0.214 µM ([7]; human, microsomes, pH 7.4, Percent of Control Activity, CYP 2C19, 0.214 µM, 30-Minute Preincubation): 99% | activity at 0.214 µM ([7]; human, microsomes, pH 7.4, Percent of Control Activity, CYP 2C19, 0.214 µM, Zero-Minute Preincubation): 92.9% | activity at 0.979 µM ([7]; human, microsomes, pH 7.4, Percent of Control Activity, CYP 2C19, 0.979 µM, Zero-Minute Preincubation): 81.3% | activity at 2.09 µM ([7]; human, microsomes, pH 7.4, Percent of Control Activity, CYP 2C19, 2.09 µM, 30-Minute Preincubation): 79.9% | activity at 2.09 µM ([7]; human, microsomes, pH 7.4, Percent of Control Activity, CYP 2C19, 2.09 µM, Zero-Minute Preincubation): 85.8% | activity at 4.48 µM ([7]; human, microsomes, pH 7.4, Percent of Control Activity, CYP 2C19, 4.48 µM, 30-Minute Preincubation): 88.7% | activity at 4.48 µM ([7]; human, microsomes, pH 7.4, Percent of Control Activity, CYP 2C19, 4.48 µM, Zero-Minute Preincubation): 83.6% | activity at 20.5 µM ([7]; human, microsomes, pH 7.4, Percent of Control Activity, CYP 2C19, 20.5 µM, 30-Minute Preincubation): 83.9% | activity at 20.5 µM ([7]; human, microsomes, pH 7.4, Percent of Control Activity, CYP 2C19, 20.5 µM, Zero-Minute Preincubation): 86.2% | activity at 43.8 µM ([7]; human, microsomes, pH 7.4, Percent of Control Activity, CYP 2C19, 43.8 µM, 30-Minute Preincubation): 81.3% | activity at 43.8 µM ([7]; human, microsomes, pH 7.4, Percent of Control Activity, CYP 2C19, 43.8 µM, Zero-Minute Preincubation): 85% | activity at 93.5 µM ([7]; human, microsomes, pH 7.4, Percent of Control Activity, CYP 2C19, 93.5 µM, 30-Minute Preincubation): 74.5% | activity at 93.5 µM ([7]; human, microsomes, pH 7.4, Percent of Control Activity, CYP 2C19, 93.5 µM, Zero-Minute Preincubation): 76.8% | activity at 200 µM ([7]; human, microsomes, pH 7.4, Percent of Control Activity, CYP 2C19, 200 µM, 30-Minute Preincubation): 64.9% | activity at 200 µM ([7]; human, microsomes, pH 7.4, Percent of Control Activity, CYP 2C19, 200 µM, Zero-Minute Preincubation): 69.2%
